Test results as given in US6303366A, “Biodegradation of the gasoline oxygenates” (Envirogen, Inc., priority 1999, dated 2001).

How the values were obtained:
[1] = system: M. vaccae JOB5; assay: Gas chromatography degradation assay, washed cells; format: cell-based, Mycobacterium vaccae; details: for % Degraded: 30 mg/l, 24 hours, OD550 1.0
Description: (§1) Propane-oxidizing microorganisms were grown as described above on either propane, isopropanol, ethanol or acetone, to a cell density of OD550≥0.5. The cells were then collected by centrifugation, washed with BSM, and suspended to an OD550 of 1.0. […] The vials were sealed with Teflon-lined septa and crimp seals and incubated with shaking (250 rpm) at 30° C. for at least 24 hr. Control samples were prepared by adding 50 μl of 10 mM HgCl2 to replicate vials. HgCl2 killed the microorganisms present in the vials allowing these vials to serve as controls. At pre-determined time points, 50 μl of 10 mM HgCl2 were added to the incubating sample to stop the reaction or a sub-sample of the incubating sample was removed for analysis. Degradation of MTBE, ETBE or tert-butyl alcohol (TBA) was measured by gas chromatography.
(§2) Gas chromatography was performed by first removing cells from the samples by centrifugation of the sample vial or the sub-sample. A pre-sealed 2-ml autosampler vial was partially evacuated by inserting a syringe needle through the septa and removing 500 μl of air. Five hundred μl of the clear supernatant fraction of the cell culture were then injected into the vial. The samples were then analyzed by injecting 1 μl of the sample directly into a Varians Model 3400 gas chromatograph equipped with a 30 m Vocol capillary column (Supelco) and a flame ionization detector. The column, injector, and detector were maintained isocratically at 80° C., 200° C., and 225° C., respectively. Standard curves of each compound were generated with aqueous standards of 10 ppm, 25 ppm, 50 ppm, and 100 ppm.

[2] = system: ENV420; assay: Gas chromatography degradation assay, washed cells; format: cell-based; details: 30 mg/l, 24 hours, OD550 1.0
Description: as §1, §2

[3] = system: ENV425; assay: Gas chromatography degradation assay, washed cells; format: cell-based, Nocardia; details: 30 mg/l, 24 hours, OD550 1.0
Description: as §1, §2

[4] = system: ENV425; assay: Field-scale membrane bioreactor treating MTBE-contaminated groundwater; set-up: species or system Nocardia; details: for % Removed: continuous operation
Description: Propane oxidizing bacteria were deployed in a field-scale membrane bioreactor (MBR) system to treat MTBE-contaminated groundwater at an oil refinery. An MBR is a type of suspended growth reactor.
The MBR system used in the present example consisted of a 1000-gallon tank equipped with a variable speed mixer, an air diffuser capable of providing up to 600 ft^3 of air per hour, an automated pH controller, and nutrient and caustic feed systems. Soda ash was used to control pH, and a soluble fertilizer, in this case fish oil emulsion, was used as a nutrient. (Other types of soluble agricultural fertilizer can be used to supply nutrients.) The weight ratio of the nutrient comprised approximately 100 parts carbon:10 parts nitrogen:1 part phosphate. The fertilizer was added continuously to the influent contaminant stream by using a LMI model A771-152S chemical metering pump. The liquid level in the reactor was controlled by using two Dwyer model 603-A level transmitters set to maintain a reactor liquid volume of from 700 to 900 gallons.
The pH was monitored and controlled by using a Rosemount model 1055APH pH analyzer/controller and a Rosemount model 385-2-8-54 pH sensor that measured pH in the reactor. Caustic was added to the influent feed line by using an LMI model A771-152S chemical metering pump. Effluent from the reactor was passed over dual ultrafiltration membranes (Rhone Poulenc model SC37/KO9; 17.22 ft^2 of membrane surface) connected in series, then into a proof tank and then a holding tank prior to discharge into the plant's sewer system.
Operation of the reactor system was initiated by adding 225 gallons of water to the reactor and then adding concentrated BSM solution (see above) to the reactor to create a liquid concentration of 1×BSM. Twenty liters of frozen propane-grown ENV425 that had been grown in a laboratory fermentor in BSM medium with propane as a sole source of carbon and energy was frozen prior to shipment, then thawed and added directly to the water in the reactor. […] After addition to the reactor, the ENV425 was mixed well until dispersed. Then, 1.1 L of isopropanol were added while the reactor was mixing. The reactor was operated for 1.5 days until the culture became turbid. The reactor volume was then increased to 800 gallons, additional BSM was added to a final concentration of 1×BSM and an additional 3.8 L of isopropanol were added.
This initial operation was termed the "batch phase" and was used to ensure equilibration of the reactor prior to initiating continuous feed operation.
Reactor effluent was passed over the ultrafiltration membranes and retenate, containing the propane-oxidizing bacteria, was returned to the reactor. Filtrate was passed to the proof tank, and a portion of the filtrate was pumped back into the reactor to maintain an appropriate liquid volume. This was done because the flux through the membrane (40 gal./day/ft^2 of membrane) was greater than the feed rate to the reactor. Some of the return liquid passed through a spray nozzle at the top of the reactor to control reactor foaming. […] Additionally, periodic samples of the reactor headspace were sampled to estimate MTBE stripping in the reactor.
Isopropanol was used to rapidly increase biomass in the reactor and to maintain high levels of activity by the propane-oxidizing bacteria.

[5] = rat model studies; oral; cited from earlier work
[6] = system: anaerobic sediment samples; details: the one active sample; more than 152 days of incubation; cited from earlier work
[7] = system: Acetobacterium woodii; details: anaerobic; cited from earlier work
[8] = system: Eubacterium limosum; details: anaerobic; cited from earlier work

COC(C)(C)C [MTBE, methyl-tert-butyl ether]
% Degraded ([1]; grown on isopropanol): 93%
% Degraded ([1]; grown on propane): 100%
degraded % of the added MTBE ([1]; propane-grown, 518 μM (46 ppm) MTBE, within 24 hr): 100%
% Degraded ([2]; grown on ethanol): 86%
% Degraded ([2]; grown on propane): 50%
% Degraded ([3]; grown on isopropanol): 71%
% Degraded ([3]; grown on propane): 67%
MTBE Loss % (volatilization) ([4]; 3/7): 9.6%
MTBE Loss % (volatilization) ([4]; 3/25): 0.9%
MTBE Loss % (volatilization) ([4]; 4/1): 6.8%
MTBE Loss % (volatilization) ([4]; 4/8): 4.6%
MTBE Loss % (volatilization) ([4]; 4/15): 2.1%
MTBE Loss % (volatilization) ([4]; Averages): 4.5%
% Removed ([4]; 1/29, T-101 MTBE 100 mg/l): 96.4%
% Removed ([4]; 2/2, T-101 MTBE 250 mg/l): 97.9%
% Removed ([4]; 2/12, T-101 MTBE 240 mg/l): 91.7%
% Removed ([4]; 2/16, T-101 MTBE 200 mg/l): 95.3%
% Removed ([4]; 2/19, T-101 MTBE 280 mg/l): 96.1%
% Removed ([4]; 2/26, T-101 MTBE 410 mg/l): 99.6%
% Removed ([4]; 3/1, T-101 MTBE 780 mg/l): 96.9%
% Removed ([4]; 3/4, T-101 MTBE 680 mg/l): 96.5%
% Removed ([4]; 3/7, T-101 MTBE 770 mg/l): 96.1%
% Removed ([4]; 3/11, T-101 MTBE 2000 mg/l): 97.0%
% Removed ([4]; 3/14, T-101 MTBE 1100 mg/l): 92.0%
% Removed ([4]; 3/18, T-101 MTBE 1900 mg/l): 99.5%
% Removed ([4]; 3/21, T-101 MTBE 1600 mg/l): 92.5%
% Removed ([4]; 3/25, T-101 MTBE 1590 mg/l): 97.0%
% Removed ([4]; 3/28, T-101 MTBE 2000 mg/l): 95.4%
% Removed ([4]; 4/1, T-101 MTBE 2200 mg/l): 96.8%
% Removed ([4]; 4/4, T-101 MTBE 2400 mg/l): 98.0%
% Removed ([4]; 4/8, T-101 MTBE 1700 mg/l): 94.6%
% Removed ([4]; Avg., T-101 MTBE 1083 mg/l): 96.2%
Loss of MTBE caused by stripping/volatilization, averaged ([4]; during the demonstration): 4.5%
influent MTBE degraded ([4]; field and laboratory testing, hydraulic retention time 2.5 to 3.3 days): > 90%
MTBE removal ([4]; throughout the demonstration, MTBE 40 mg/L to >2000 mg/L): Greater than 90%
no-observable-adverse-effect-level (NOAEL) [5]: 100 mg/kg/day
transformation of MTBE [6]: about 50%
degradation by resting cells [7]: not degraded
degradation by resting cells [8]: not degraded
